Test results published in the supplement of paper PMC10307832.

Columns and labels:
Assay in all cases: relative viability (nuclei count vs DMSO), 5 days (fraction); higher = more cells survive
Seliciclib = compound: CC[C@H](CO)Nc1nc(NCc2ccccc2)c2ncn(C(C)C)c2n1 [Seliciclib]
Procedure, shortened: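 Lung cancer cell lines received five library-drug doses (not always all listed) spaced by √10, pinned on vehicle-anchored 1536-well plates after an overnight stay at 37 °C. Five days later, with no medium change, nuclei were Hoechst-stained, imaged at 4× and counted with MetaXpress. Viability is treated-well nuclei relative to vehicle-well nuclei, as a median across plates. Passing plates had control CV below 25% and at least one doubling.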

Seliciclib + Trametinib = compound: CC[C@H](CO)Nc1nc(NCc2ccccc2)c2ncn(C(C)C)c2n1 [Seliciclib] + CC(=O)Nc1cccc(-n2c(=O)n(C3CC3)c(=O)c3c(Nc4ccc(I)cc4F)n(C)c(=O)c(C)c32)c1 [Trametinib] (partner 0.02 µM)
Procedure, shortened: (§1)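 Five library-drug doses in √10 steps were combined with a fixed anchor-drug dose, or a single drug was given alone, by pin tool to lung cancer cell lines in 1536-well plates the day after seeding. Nuclei were stained and counted after 5 days. Relative viability is the nuclei count in treated wells over that in vehicle wells, taken as the median of duplicate plates.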

Seliciclib + OSI-027 = compound: CC[C@H](CO)Nc1nc(NCc2ccccc2)c2ncn(C(C)C)c2n1 [Seliciclib] + COc1cccc2cc(-c3nc([C@H]4CC[C@H](C(=O)O)CC4)n4ncnc(N)c34)[nH]c12 [OSI-027] (partner 0.5 µM)
Procedure, shortened: as §1

Seliciclib + Phenformin = compound: CC[C@H](CO)Nc1nc(NCc2ccccc2)c2ncn(C(C)C)c2n1 [Seliciclib] + N=C(N)NC(=N)NCCc1ccccc1 [Phenformin] (partner 250 µM)
Procedure, shortened: as §1

## NCI-H727
Seliciclib; 0.08 µM
  relative viability: 0.85
Seliciclib; 0.253 µM
  relative viability: 0.891
Seliciclib; 0.8 µM
  relative viability: 0.8
Seliciclib; 2.53 µM
  relative viability: 0.796
Seliciclib; 8 µM
  relative viability: 0.75
Seliciclib + Trametinib; first compound 0.08 µM
  relative viability: 0.388
Seliciclib + Trametinib; first compound 0.253 µM
  relative viability: 0.443
Seliciclib + Trametinib; first compound 0.8 µM
  relative viability: 0.399
Seliciclib + Trametinib; first compound 2.53 µM
  relative viability: 0.377
Seliciclib + Trametinib; first compound 8 µM
  relative viability: 0.335
Seliciclib + OSI-027; first compound 0.08 µM
  relative viability: 0.792
Seliciclib + OSI-027; first compound 0.253 µM
  relative viability: 0.687
Seliciclib + OSI-027; first compound 0.8 µM
  relative viability: 0.465
Seliciclib + OSI-027; first compound 2.53 µM
  relative viability: 0.338
Seliciclib + OSI-027; first compound 8 µM
  relative viability: 0.636
Seliciclib + Phenformin; first compound 0.08 µM
  relative viability: 0.562
Seliciclib + Phenformin; first compound 0.253 µM
  relative viability: 0.488
Seliciclib + Phenformin; first compound 0.8 µM
  relative viability: 0.561
Seliciclib + Phenformin; first compound 2.53 µM
  relative viability: 0.373
Seliciclib + Phenformin; first compound 8 µM
  relative viability: 0.472

## NCI-H838
Seliciclib; 0.08 µM
  relative viability: 0.945
Seliciclib; 0.253 µM
  relative viability: 0.956
Seliciclib; 0.8 µM
  relative viability: 0.944
Seliciclib; 2.53 µM
  relative viability: 0.926
Seliciclib; 8 µM
  relative viability: 0.805
Seliciclib + Trametinib; first compound 0.08 µM
  relative viability: 0.516
Seliciclib + Trametinib; first compound 0.253 µM
  relative viability: 0.485
Seliciclib + Trametinib; first compound 0.8 µM
  relative viability: 0.523
Seliciclib + Trametinib; first compound 2.53 µM
  relative viability: 0.449
Seliciclib + Trametinib; first compound 8 µM
  relative viability: 0.451
Seliciclib + OSI-027; first compound 0.08 µM
  relative viability: 0.425
Seliciclib + OSI-027; first compound 0.253 µM
  relative viability: 0.44
Seliciclib + OSI-027; first compound 0.8 µM
  relative viability: 0.325
Seliciclib + OSI-027; first compound 2.53 µM
  relative viability: 0.247
Seliciclib + OSI-027; first compound 8 µM
  relative viability: 0.292
Seliciclib + Phenformin; first compound 0.08 µM
  relative viability: 0.59
Seliciclib + Phenformin; first compound 0.253 µM
  relative viability: 0.559
Seliciclib + Phenformin; first compound 0.8 µM
  relative viability: 0.561
Seliciclib + Phenformin; first compound 2.53 µM
  relative viability: 0.461
Seliciclib + Phenformin; first compound 8 µM
  relative viability: 0.329

## NCI-H1355
Seliciclib; 0.08 µM
  relative viability: 0.977
Seliciclib; 0.253 µM
  relative viability: 0.959
Seliciclib; 0.8 µM
  relative viability: 0.89
Seliciclib; 2.53 µM
  relative viability: 0.905
Seliciclib; 8 µM
  relative viability: 0.959
Seliciclib + Trametinib; first compound 0.08 µM
  relative viability: 0.391
Seliciclib + Trametinib; first compound 0.253 µM
  relative viability: 0.336
Seliciclib + Trametinib; first compound 0.8 µM
  relative viability: 0.477
Seliciclib + Trametinib; first compound 2.53 µM
  relative viability: 0.474
Seliciclib + Trametinib; first compound 8 µM
  relative viability: 0.415
Seliciclib + OSI-027; first compound 0.08 µM
  relative viability: 0.462
Seliciclib + OSI-027; first compound 0.253 µM
  relative viability: 0.303
Seliciclib + OSI-027; first compound 0.8 µM
  relative viability: 0.372
Seliciclib + OSI-027; first compound 2.53 µM
  relative viability: 0.288
Seliciclib + OSI-027; first compound 8 µM
  relative viability: 0.39
Seliciclib + Phenformin; first compound 0.08 µM
  relative viability: 0.436
Seliciclib + Phenformin; first compound 0.253 µM
  relative viability: 0.443
Seliciclib + Phenformin; first compound 0.8 µM
  relative viability: 0.433
Seliciclib + Phenformin; first compound 2.53 µM
  relative viability: 0.423
Seliciclib + Phenformin; first compound 8 µM
  relative viability: 0.435

## NCI-H1395
Seliciclib; 0.08 µM
  relative viability: 0.978
Seliciclib; 0.253 µM
  relative viability: 0.725
Seliciclib; 0.8 µM
  relative viability: 0.857
Seliciclib; 2.53 µM
  relative viability: 0.789
Seliciclib; 8 µM
  relative viability: 0.94
Seliciclib + Trametinib; first compound 0.08 µM
  relative viability: 1.04
Seliciclib + Trametinib; first compound 0.253 µM
  relative viability: 0.843
Seliciclib + Trametinib; first compound 0.8 µM
  relative viability: 0.968
Seliciclib + Trametinib; first compound 8 µM
  relative viability: 1.04
Seliciclib + OSI-027; first compound 0.08 µM
  relative viability: 0.728
Seliciclib + OSI-027; first compound 0.253 µM
  relative viability: 0.576
Seliciclib + OSI-027; first compound 0.8 µM
  relative viability: 0.606
Seliciclib + OSI-027; first compound 2.53 µM
  relative viability: 0.612
Seliciclib + OSI-027; first compound 8 µM
  relative viability: 0.587
Seliciclib + Phenformin; first compound 0.08 µM
  relative viability: 0.433
Seliciclib + Phenformin; first compound 0.253 µM
  relative viability: 0.438
Seliciclib + Phenformin; first compound 0.8 µM
  relative viability: 0.455
Seliciclib + Phenformin; first compound 2.53 µM
  relative viability: 0.453
Seliciclib + Phenformin; first compound 8 µM
  relative viability: 0.428

## NCI-H1437
Seliciclib; 0.08 µM
  relative viability: 0.965
Seliciclib; 0.253 µM
  relative viability: 1.12
Seliciclib; 0.8 µM
  relative viability: 0.968
Seliciclib; 2.53 µM
  relative viability: 0.95
Seliciclib; 8 µM
  relative viability: 0.872
Seliciclib + Trametinib; first compound 0.08 µM
  relative viability: 0.5
Seliciclib + Trametinib; first compound 0.253 µM
  relative viability: 0.551
Seliciclib + Trametinib; first compound 0.8 µM
  relative viability: 0.562
Seliciclib + Trametinib; first compound 2.53 µM
  relative viability: 0.398
Seliciclib + Trametinib; first compound 8 µM
  relative viability: 0.401
Seliciclib + OSI-027; first compound 0.08 µM
  relative viability: 0.844
Seliciclib + OSI-027; first compound 0.253 µM
  relative viability: 0.877
Seliciclib + OSI-027; first compound 0.8 µM
  relative viability: 0.99
Seliciclib + OSI-027; first compound 2.53 µM
  relative viability: 0.52
Seliciclib + OSI-027; first compound 8 µM
  relative viability: 0.787
Seliciclib + Phenformin; first compound 0.08 µM
  relative viability: 0.347
Seliciclib + Phenformin; first compound 0.253 µM
  relative viability: 0.353
Seliciclib + Phenformin; first compound 0.8 µM
  relative viability: 0.291
Seliciclib + Phenformin; first compound 2.53 µM
  relative viability: 0.241
Seliciclib + Phenformin; first compound 8 µM
  relative viability: 0.262

## NCI-H1650
Seliciclib; 0.08 µM
  relative viability: 0.926
Seliciclib; 0.253 µM
  relative viability: 1.1
Seliciclib; 0.8 µM
  relative viability: 0.95
Seliciclib; 2.53 µM
  relative viability: 0.824
Seliciclib; 8 µM
  relative viability: 0.663
Seliciclib + Trametinib; first compound 0.08 µM
  relative viability: 0.572
Seliciclib + Trametinib; first compound 0.253 µM
  relative viability: 0.69
Seliciclib + Trametinib; first compound 0.8 µM
  relative viability: 0.471
Seliciclib + Trametinib; first compound 2.53 µM
  relative viability: 0.433
Seliciclib + Trametinib; first compound 8 µM
  relative viability: 0.422
Seliciclib + OSI-027; first compound 0.08 µM
  relative viability: 0.842
Seliciclib + OSI-027; first compound 0.253 µM
  relative viability: 0.518
Seliciclib + OSI-027; first compound 0.8 µM
  relative viability: 0.641
Seliciclib + OSI-027; first compound 2.53 µM
  relative viability: 0.487
Seliciclib + OSI-027; first compound 8 µM
  relative viability: 0.443
Seliciclib + Phenformin; first compound 0.08 µM
  relative viability: 0.436
Seliciclib + Phenformin; first compound 0.253 µM
  relative viability: 0.525
Seliciclib + Phenformin; first compound 0.8 µM
  relative viability: 0.462
Seliciclib + Phenformin; first compound 2.53 µM
  relative viability: 0.424
Seliciclib + Phenformin; first compound 8 µM
  relative viability: 0.264

## NCI-H1651
Seliciclib; 0.08 µM
  relative viability: 1.01
Seliciclib; 0.253 µM
  relative viability: 0.974
Seliciclib; 0.8 µM
  relative viability: 0.958
Seliciclib; 2.53 µM
  relative viability: 0.895
Seliciclib; 8 µM
  relative viability: 0.906
Seliciclib + Trametinib; first compound 0.08 µM
  relative viability: 0.732
Seliciclib + Trametinib; first compound 0.253 µM
  relative viability: 0.783
Seliciclib + Trametinib; first compound 0.8 µM
  relative viability: 0.796
Seliciclib + Trametinib; first compound 2.53 µM
  relative viability: 0.793
Seliciclib + Trametinib; first compound 8 µM
  relative viability: 0.796
Seliciclib + OSI-027; first compound 0.08 µM
  relative viability: 0.654
Seliciclib + OSI-027; first compound 0.253 µM
  relative viability: 0.815
Seliciclib + OSI-027; first compound 0.8 µM
  relative viability: 0.651
Seliciclib + OSI-027; first compound 2.53 µM
  relative viability: 0.542
Seliciclib + OSI-027; first compound 8 µM
  relative viability: 0.543
Seliciclib + Phenformin; first compound 0.08 µM
  relative viability: 0.339
Seliciclib + Phenformin; first compound 0.253 µM
  relative viability: 0.366
Seliciclib + Phenformin; first compound 0.8 µM
  relative viability: 0.317
Seliciclib + Phenformin; first compound 2.53 µM
  relative viability: 0.277
Seliciclib + Phenformin; first compound 8 µM
  relative viability: 0.249

## NCI-H1666
Seliciclib; 0.08 µM
  relative viability: 0.955
Seliciclib; 0.253 µM
  relative viability: 1.13
Seliciclib; 0.8 µM
  relative viability: 1.01
Seliciclib; 2.53 µM
  relative viability: 0.866
Seliciclib; 8 µM
  relative viability: 0.829
Seliciclib + Trametinib; first compound 0.08 µM
  relative viability: 0.829
Seliciclib + Trametinib; first compound 0.253 µM
  relative viability: 0.761
Seliciclib + Trametinib; first compound 0.8 µM
  relative viability: 0.792
Seliciclib + Trametinib; first compound 2.53 µM
  relative viability: 0.849
Seliciclib + Trametinib; first compound 8 µM
  relative viability: 0.75
Seliciclib + OSI-027; first compound 0.08 µM
  relative viability: 0.817
Seliciclib + OSI-027; first compound 0.253 µM
  relative viability: 0.899
Seliciclib + OSI-027; first compound 0.8 µM
  relative viability: 0.939
Seliciclib + OSI-027; first compound 2.53 µM
  relative viability: 0.622
Seliciclib + OSI-027; first compound 8 µM
  relative viability: 0.734
Seliciclib + Phenformin; first compound 0.08 µM
  relative viability: 0.59
Seliciclib + Phenformin; first compound 0.253 µM
  relative viability: 0.589
Seliciclib + Phenformin; first compound 0.8 µM
  relative viability: 0.556
Seliciclib + Phenformin; first compound 2.53 µM
  relative viability: 0.549
Seliciclib + Phenformin; first compound 8 µM
  relative viability: 0.516
